Reference: paper PMC9268102, “Design, Synthesis and Biological Evaluation of 1,3,5-Triazine Derivatives Targeting hA1 and hA3 Adenosine Receptor” (Molecules, 2022)

Assays:
Format in all cases: cell-based
[1] = target: T1, hA3 AR (Homo sapiens, UniProt P0DMS8); test: cAMP accumulation assay, antagonist mode, hA3 AR; parameters: expressed in transfected cells; conditions: in presence of NECA, CHO-A3#18 cells
T1 sequence (P0DMS8 1-318): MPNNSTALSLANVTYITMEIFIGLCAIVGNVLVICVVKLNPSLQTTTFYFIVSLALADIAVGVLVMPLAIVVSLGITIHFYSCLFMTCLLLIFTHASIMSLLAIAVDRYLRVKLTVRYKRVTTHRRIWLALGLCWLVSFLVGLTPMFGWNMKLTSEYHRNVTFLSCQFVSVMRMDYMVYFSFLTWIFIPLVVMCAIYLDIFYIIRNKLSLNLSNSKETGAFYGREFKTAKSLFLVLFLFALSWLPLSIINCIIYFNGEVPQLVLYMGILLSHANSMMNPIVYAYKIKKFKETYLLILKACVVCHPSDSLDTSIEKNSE
Description: (§1) To determine whether 1,3,5-triazine scaffold derivatives behave as agonists or antagonists, we performed cAMP accumulation assays with 11a and 11b at hA1 and hA3 AR. We confirmed whether the test compounds behave as antagonists by measuring the concentration change in cAMP in the presence of a full agonist 5-N-ethylcarboxamido adenosine (NECA) using antagonist mode assays. We also confirmed whether the test compounds could behave as agonists by comparing the relative percentage activation of NECA using agonist mode assays.
(§2) hA1 and hA3 AR functional experiments were carried out in CHO-A1 and CHO-A3#18 cell line, respectively. The day before the assay, the cells were seeded on the 96-well culture plate (Falcon 353072). The cells were washed with wash buffer (Nutrient Mixture F12 Ham’s (Sigma N6658) for hA1 AR; Dulbecco’s modified eagle’s medium nutrient mixture F-12 ham (Sigma D8062) for hA3 AR; 25 mM Hepes; pH = 7.4). Wash buffer was replaced by incubation buffer (Mixture F12 Ham’s (Sigma N6658) for hA1 AR; Dulbecco’s modified eagle’s medium nutrient mixture F-12 ham (Sigma D8062) for hA3 AR; 25 mM Hepes, 20 µM Rolipram (Sigma R6520); pH = 7.4). […] After incubation, the amount of cAMP was determined using cAMP Biotrak Enzyme immunoassay (EIA) System Kit (GE Healthcare RPN225).

[2] = target: T2, hA1 AR (Homo sapiens, UniProt P30542); test: cAMP accumulation assay, agonist mode, hA1 AR; conditions: relative to NECA, CHO-A1 cells
T2 construct: host or cells: CHO-A1 (CHO cells expressing hA1 AR)
T2 sequence (P30542 1-326): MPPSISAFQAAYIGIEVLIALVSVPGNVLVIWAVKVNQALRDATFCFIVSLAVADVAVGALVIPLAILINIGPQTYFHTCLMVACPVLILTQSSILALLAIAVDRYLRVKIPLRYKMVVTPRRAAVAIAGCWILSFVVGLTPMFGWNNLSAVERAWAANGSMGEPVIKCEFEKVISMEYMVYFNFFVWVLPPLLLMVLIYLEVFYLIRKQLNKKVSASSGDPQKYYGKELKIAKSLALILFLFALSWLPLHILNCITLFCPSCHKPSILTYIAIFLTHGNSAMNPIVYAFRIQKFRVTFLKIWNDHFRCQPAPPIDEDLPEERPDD
Description: as §1
(§3) hA1 and hA3 AR functional experiments were carried out in CHO-A1 and CHO-A3#18 cell line, respectively. The day before the assay, the cells were seeded on the 96-well culture plate (Falcon 353072). The cells were washed with wash buffer (Mixture F12 Ham’s (Sigma N6658) for hA1 AR; Dulbecco’s modified eagle’s medium nutrient mixture F-12 ham (Sigma D8062) for hA3 AR; 25mM Hepes; pH = 7.4). Wash buffer was replaced by incubation buffer (Mixture F12 Ham’s (Sigma N6658) for hA1 AR; Dulbecco’s modified eagle’s medium nutrient mixture F-12 ham (Sigma D8062) for hA3 AR; 25 mM Hepes, 20 µM Rolipram (Sigma R6520); pH = 7.4). The cells were pre-incubated at 37 °C for 15 min. […] After incubation, the amount of cAMP was determined using cAMP Biotrak Enzyme immunoassay (EIA) System Kit (GE Healthcare RPN225).

[3] = target: T1, hA3 AR; test: cAMP accumulation assay, agonist mode, hA3 AR; parameters: expressed in transfected cells; conditions: relative to NECA, CHO-A3#18 cells
Description: as §1, §3

[4] = target: T2, hA1 AR; test: cAMP accumulation assay, antagonist mode, hA1 AR; conditions: in presence of NECA, CHO-A1 cells
Description: as §1, §2

[5] = tested on: NCI-H1299 cells; test: Cell viability (MTS) assay in NCI-H1299 cells; conditions: Homo sapiens, 48 h
Method: (§4) To test the effect of the compounds in terms of cell growth regulation in lung cancer cell lines such as A549 and NCI-H1299 cells, these cells were treated in 96-well plates for 48 h with the compounds at concentrations ranging from 0 μM to 100 μM. […] Therefore, we decided to perform an additional experiment with 9c.
(§5) A549 and NCI-H1299 cells were seeded in 96-well plates at a density of 1 × 10^5 cells per well for 24 h before being exposed to compounds at various concentrations. After 48 h of compound treatment, the CellTiter 96 AQueous One Solution Cell Proliferation Assay Kit (Promega, Madison, WI, USA) was used to conduct a cell viability assay. The cells were incubated with solution reagents for 2 h at 37 °C before being measured for absorbance at 490 nm using a Synergy HTX Multi-Mode microplate reader (BioTek Instruments, Inc., Winooski, VT, USA).

[6] = tested on: A549 cells; test: Cell viability (MTS) assay in A549 cells; conditions: Homo sapiens, 48 h
Method: as §4, §5

Row | Percentage inhibition in antagonist mode, hA3 AR [1] [%] | Percentage activation in agonist mode, hA1 AR [2] [%] | Percentage activation in agonist mode, hA3 AR [3] [%] | Percentage inhibition in antagonist mode, hA1 AR [4] [%] | Structure (SMILES) | viability at 25 µM [5] [%] | viability at 25 µM [6] [%]
1 | 77 | 11 | 17 | 1 | COc1ccc(-c2nc(N)nc(Nc3ccc(OC)c(F)c3)n2)cc1 [Compound 11a, N^2-(3-fluoro-4-methoxyphenyl)-6-(4-methoxyphenyl)-1,3,5-triazine-2,4-diamine] |  | 
2 | 88 | 23 | 6 | 60 | COc1ccc(Nc2nc(N)nc(-c3ccc(F)cc3)n2)cc1F [Compound 11b, N^2-(3-fluoro-4-methoxyphenyl)-6-(4-fluorophenyl)-1,3,5-triazine-2,4-diamine] |  | 
3 |  |  |  |  | COc1cc(Nc2nc(N)nc(-c3ccc(O)cc3)n2)ccc1Cl [Compound 9c, 4-{4-amino-6-[(4-chloro-3-methoxyphenyl)amino]-1,3,5-triazin-2-yl}phenol] | 68.8 | 59.9
